Counter-ions that a name gives are not always drawn. Like-named read-outs stand apart in the source and are kept apart here.
Tests used:
[1] = molecular target: T1, Human H3 Receptor (Homo sapiens, UniProt Q9Y5N1); assay: [3H]-N-Methylhistamine binding, membranes of H3 receptor-expressing SK-N-MC cells; details: 0.8 nM [3H]-N-methylhistamine, 60 min at 25° C., average of results
T1 construct: expressed in transfected cells
Experimental: (§1) Cells were grown to about 70% to 80% confluence and removed from the plate with trypsin and pelleted in a clinical centrifuge. The pellet was then re-suspended in 400 μL of complete media and transferred to an electroporation cuvette with a 0.4 cm gap between the electrodes (Bio-Rad #165-2088). One μg supercoiled H3 receptor cDNA was added to the cells and mixed gently. The voltage for the electroporation was set at 0.25 kV and the capacitance was set at 960 μF. After electroporation the cells were diluted with 10 mL of complete media and were plated onto four 10 cm dishes at the following ratios: 1:20, 1:10, 1:5, and 1:2. The cells were allowed to recover for 24 h before adding 600 μg G-418. Colonies that survived selection were grown and tested. SK-N-MC cells were used because they give efficient coupling for inhibition of adenylate cyclase. The clones that gave the most robust inhibition of adenylate cyclase in response to histamine were used for further study.
Cell pellets from histamine H3 receptor-expressing SK-N-MC cells were homogenized in 50 mM TrisHCl/0.5 mM EDTA. Supernatants from an 800 g spin were collected and were recentrifuged at 30,000 g for 30 min. Pellets were re-homogenized in 50 mM Tris/5 mM EDTA (pH 7.4). Membranes were incubated with 0.8 nM [^3H]-N-methylhistamine plus/minus test compounds for 60 min at 25° C. and were harvested by rapid filtration over GF/C glass fiber filters (pretreated with 0.3% polyethylenimine) followed by four washes with buffer. Filters were added to 5 mL of scintillation cocktail, and the signal was then counted on a liquid scintillation counter.

[2] = Pharmacokinetics and bioanalysis in the rat; assay type: in vivo, male Sprague Dawley Rats; details: for half-life (T1/2) relative to the comparative examples / volume of distribution (Vd) relative to the comparative examples: compared with isopropyl / cyclobutyl analogs
Experimental: One group of six male Sprague Dawley Rats (approx. 300 g body weight; three animals per time point) was used. They were group-housed, provided food and water ad libitum, and were maintained on a 12-h light and dark cycle. Animals were acclimatized for at least 7 days after receipt from the vendor prior to investigations.
For oral dosing, test compounds were formulated at 1 mg/mL in 0.5% hydroxypropyl methyl cellulose and delivered at a dose of 10 mg/kg. Citric acid salt forms (prepared as described for Example 1B) of the test compounds were used. Animals received a bolus dose of 10 mg/kg (10 mL/kg) for each compound via a 16 gauge intragastric gavage. For intravenous dosing, test compounds were formulated at 1 mg/mL in 5% dextrose in water and dosed at 1 mg/kg (1 mL/kg) with a bolus intravenous dose via a 24-gauge Terumo® Surflo® catheter in the lateral tail vein. All dosing solutions were prepared immediately prior to injection.
Blood samples (250 μL) were taken from the lateral tail vein into heparinized Natelson blood collection tubes and expelled into 1.5 mL mcirocentrifuge tubes. The blood samples were centrifuged for 5 min at 14,000 rpm in a micro-centrifuge. Plasma was retained and kept in a −20° C. freezer until analysis by LC-MS/MS.
Data analysis was performed using WinNonlin version 3.3 or 4.0.1. A non -compartmental model (#200 for Extravascular administration and #201 for i.v.) was used to determine the pharmacokinetic parameters shown in Tables 4 and 5 (NA=not applicable or not determined).

[3] = molecular target: T1, Human H3 Receptor; assay: Cyclic AMP accumulation, SK-N-MC cells with reporter construct and human H3 receptor (pA2); assay type: cell-based; details: pA2, average of results
Experimental: as §1, with “The pellet was then re-suspended in 400 μL of complete media and transferred to an electroporation cuvette with a 0.4 cm gap between the electrodes (Bio-Rad #165-2088).” left out, “The cells were allowed to recover for 24 h before adding 600 μg G-418.” left out
Sublines of SK-N-MC cells were created that expressed a reporter construct and the human H3 receptor.

[4] = male, Sprague Dawley, iv, i.v. 1 mg/kg, citric acid salt, plasma
[5] = male, Sprague Dawley, iv, i.v. 1 mg/kg, citric acid salt, plasma, read-out: AUCINF (h-μmol/mL)
[6] = male, Sprague Dawley, oral 10 mg/kg, citric acid salt, plasma
[7] = male, Sprague Dawley, oral 10 mg/kg, citric acid salt, plasma, read-out: AUCINF (h-μmol/mL)
[8] = male, Sprague Dawley, plasma, iv, i.v. 1 mg/kg, citric acid salt, read-out: Vd
[9] = male, Sprague Dawley, iv, i.v. 1 mg/kg, citric acid salt, plasma, read-out: AUCINF
[10] = male, Sprague Dawley, oral 10 mg/kg, citric acid salt, plasma, read-out: AUCINF
[11] = oral 10 mg/kg, citric acid salt

T1 sequence (Q9Y5N1 whole entry): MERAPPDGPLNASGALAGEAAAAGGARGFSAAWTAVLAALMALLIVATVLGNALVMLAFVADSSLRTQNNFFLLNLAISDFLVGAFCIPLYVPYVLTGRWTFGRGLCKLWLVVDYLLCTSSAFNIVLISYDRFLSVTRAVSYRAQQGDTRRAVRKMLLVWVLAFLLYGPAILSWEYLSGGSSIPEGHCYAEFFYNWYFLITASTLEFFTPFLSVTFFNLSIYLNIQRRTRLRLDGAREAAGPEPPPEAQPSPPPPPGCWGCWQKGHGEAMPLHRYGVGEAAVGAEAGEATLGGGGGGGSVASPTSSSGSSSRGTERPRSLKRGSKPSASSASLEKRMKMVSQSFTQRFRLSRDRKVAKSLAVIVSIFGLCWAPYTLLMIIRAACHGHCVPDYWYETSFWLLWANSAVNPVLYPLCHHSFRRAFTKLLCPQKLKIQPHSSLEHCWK

Compound	Ki ([1]; read-out: Ki) [nM]	CI ([2]; i.v. 1 mg/kg, citric acid salt) [mL/min/kg]	Cmax [2, 4]	half-life [2, 4] [h]	AUC(0-inf) [2, 5] [µM·h]	Cmax [2, 6]	Tmax [2, 6] [h]	half-life [2, 6] [h]	AUC(0-inf) [2, 7] [µM·h]	Vd [2, 8] [L/kg]	further results
O=C(c1ccc(CN2CCC(F)CC2)cc1)N1CCN(C2CC2)CC1 [Example 2, (4-Cyclopropyl-piperazin-1-yl)-[4-(4-fluoro-piperidin-1-ylmethyl)-phenyl]-methanone]	2										
CC(C)N1CCN(C(=O)c2ccc(CN3CCOC(CO)C3)cc2)CC1 (centres unmarked) [Comparative Example 6B, [4-(2-Hydroxymethyl-morpholin-4-ylmethyl)-phenyl]-(4-isopropyl-piperazin-1-yl)-methanone citratae salt]	5	34.9	1410 nM	2.36	1.34	2960 nM	0.5	4.35	20	7.04	
O=C(O)CC(O)(CC(=O)O)C(=O)O.O=C(c1ccc(CN2CCSCC2)cc1)N1CCN(C2CCC2)CC1 [Comparative Example 5B, (4-Cyclobutyl-piperazin-1-yl)-(4-thiomorpholin-4-ylmethyl-phenyl)-methanone citrate salt]		154	2680 nM	1.33	0.42	70 nM	0.38	0.95	0.12	17.8	
CC(C)N1CCN(C(=O)c2ccc(CN3CCC(F)CC3)cc2)CC1 [Comparative Example 3, [4-(4-Fluoro-piperidin-1-ylmethyl)-phenyl]-(4-isopropyl-piperazin-1-yl)-methanone]	2										
O=C(O)CC(O)(CC(=O)O)C(=O)O.O=C(c1ccc(CN2CCOC(CO)C2)cc1)N1CCN(C2CC2)CC1 (centres unmarked) [Example 4B, (4-Cyclopropyl-piperazin-1-yl)-[4-(2-hydroxymethyl-morpholin-4-ylmethyl)-phenyl]-methanone citrate salt]	23	15.2	2920 nM	1.47	3.07	8730 nM	0.83	3.58	33.2	1.91	half-life (T1/2) relative to the comparative examples [2]: shorter T1/2; volume of distribution (Vd) relative to the comparative examples [2]: lower Vd
CC(C)N1CCN(C(=O)c2ccc(CN3CCOCC3)cc2)CC1 [Comparative Example 1, (4-Isopropyl-piperazin-1-yl)-(4-morpholin-4-ylmethyl-phenyl) -methanone]											Kb [3]: 1 nM
O=C(O)CC(O)(CC(=O)O)C(=O)O.O=C(c1ccc(CN2CCSCC2)cc1)N1CCN(C2CC2)CC1 [Example 3B, (4-Cyclopropyl-piperazin-1-yl)-(4-thiomorpholin-4-ylmethyl-phenyl) -methanone citrate salt]		282	860 nM	0.27	0.18	190 nM	0.25	0.41	0.18	6.48	half-life (T1/2) relative to the comparative examples [2]: shorter T1/2; volume of distribution (Vd) relative to the comparative examples [2]: lower Vd
O=C(c1ccc(CN2CCOCC2)cc1)N1CCN(C2CCC2)CC1 [Comparative Example 2A, (4-Cyclobutyl-piperazin-1-yl)-(4-morpholin-4-ylmethyl-phenyl)-methanone dihydrochloride]	1.7										
CC(C)N1CCN(C(=O)c2ccc(CN3CCOCC3)cc2)CC1 [Comparative Example 1A, (4-Isopropyl-piperazin-1-yl)-(4-morpholin-4-ylmethyl-phenyl) -methanone dihydrochloride]											Kb [3]: 1.26 nM
O=C(O)CC(O)(CC(=O)O)C(=O)O.O=C(c1ccc(CN2CCOCC2)cc1)N1CCN(C2CCC2)CC1 [Comparative Example 2B, (4-Cyclobutyl-piperazin-1-yl)-(4-morpholin-4-ylmethyl-phenyl)-methanone citrate salt]	2	34.8	285 ng/mL	1.86		683 ng/mL	1.33	2.89		6.41	AUC(0-inf) [2, 9]: 464 ng·h/mL; AUC(0-inf) [2, 10]: 4100 ng·h/mL; CI [2, 11]: 43.2 mL/min/kg; Vd [2, 11]: 10.33 L/kg
O=C(c1ccc(CN2CCSCC2)cc1)N1CCN(C2CC2)CC1 [Example 3, (4-Cyclopropyl-piperazin-1-yl)-(4-thiomorpholin-4-ylmethyl-phenyl) -methanone]	2.5										
CC(C)N1CCN(C(=O)c2ccc(CN3CCOCC3)cc2)CC1.O=C(O)CC(O)(CC(=O)O)C(=O)O [Comparative Example 1B, (4-Isopropyl-piperazin-1-yl)-(4-morpholin-4-ylmethyl-phenyl) -methanone citrate salt]		12.8	4110 ng/mL			1050 ng/mL	1.5	4.71		3.55	T1/2 ([2]; i.v. 1 mg/kg, citric acid salt, plasma): 3.2 h; AUC(0-inf) [2, 9]: 1560 ng·h/mL; AUC(0-inf) [2, 10]: 9740 ng·h/mL; CI [2, 11]: 17.1 mL/min/kg; Vd [2, 11]: 6.98 L/kg
O=C(O)CC(O)(CC(=O)O)C(=O)O.O=C(c1ccc(CN2CCOCC2)cc1)N1CCN(C2CC2)CC1 [Example 1B, (4-Cyclopropyl-piperazin-1-yl)-(4-morpholin-4-ylmethyl-phenyl) -methanone citrate salt]		21.6	935 ng/mL	0.92		2790 ng/mL	0.5	3.11		1.72	half-life (T1/2) relative to the comparative examples [2]: shorter half-life; volume of distribution (Vd) relative to the comparative examples [2]: lower volume of distribution; AUC(0-inf) [2, 9]: 777 ng·h/mL; AUC(0-inf) [2, 10]: 8720 ng·h/mL; CI [2, 11]: 20.2 mL/min/kg; Vd [2, 11]: 5.45 L/kg; Ki ([1]; Ki (nM)): 6.5 nM
O=C(c1ccc(CN2CCSCC2)cc1)N1CCN(C2CCC2)CC1 [Comparative Example 5, (4-Cyclobutyl-piperazin-1-yl)-(4-thiomorpholin-4-ylmethyl-phenyl)-methanone]	1										
O=C(c1ccc(CN2CCOC(CO)C2)cc1)N1CCN(C2CC2)CC1 (centres unmarked) [Example 4, (4-Cyclopropyl-piperazin-1-yl)-[4-(2-hydroxymethyl-morpholin-4-ylmethyl)-phenyl]-methanone]	6										
O=C(O)CC(O)(CC(=O)O)C(=O)O.O=C(c1ccc(CN2CCC(F)CC2)cc1)N1CCN(C2CCC2)CC1 [Comparative Example 4B, (4-Cyclobutyl-piperazin-1-yl)-[4-(4-fluoro-piperidin-1-ylmethyl)-phenyl]-methanone citrate salt]		113	460 nM	2.08	0.41	480 nM	0.67	3.44	1.28		Vd ([2]; i.v. 1 mg/kg, citric acid salt): 20.3 L/kg; CI [2, 11]: 1135 mL/min/kg; Vd [2, 11]: 397 L/kg

From US7910582B2, “Cyclopropyl amines as modulators of the histamine H3 receptor” (Janssen Pharmaceutica NV, priority 2005, dated 2011)
